Data reported in US9334256B2, “Agents and methods for treating ischemic and other diseases” (NoNO INC., priority 2011, dated 2016).
Entries after “also recorded” stand apart in the source; their conditions may differ.

Tests used:
TRPM7 ion channel = target: T1, TRPM7 ion channel (Mus musculus, UniProt Q923J1); test: Whole-cell patch clamp of TRPM7 currents in HEK293 cells; type: cell-based; conditions: value shown = concentration at which the compound significantly inhibits the ion channel
T1 construct: expressed in transfected cells; host or cells: TRPM7-tet-on HEK293 cells
Procedure: To further understand the structure function relationships between the TRPM7 inhibitors identified in the TRPM7-dependent HEK death assay, the activity of a subset of these inhibitors described herein were tested for their ability to inhibit TRPM7 currents in cell systems. Whole-cell patch clamp recordings were used essentially as described to test the TRPM7 inhibitors in HEK293 cells, H9c2 cardiomyocytes and cultured neurons. […] Those that provide >10% inhibition of TRPM7 channel activity in the HEK293 cell system were labeled with the concentration tested (generally 5 uM). Thus, the compounds in this table marked with such a value are able to block the activity gof the TRPM7 ion channel. FIGS. 2A-C provide an example of this for the TRPM7 inhibitor 399 (Structure 9). […] Numbers in brackets indicate the number of independent tests, and the bars represent the SEM.
Whole-cell currents were recorded using an Axopatch 1D or MultiClamp 700B amplifier and were digitized at 10 kHz and low-pass filtered at 2 kHz, at room temperature. pClamp10 software was used for data acquisition and analysis. Patch electrodes were pulled from Borosilicate glass and fire polished to a resistance of 2-4 MΩ. All drugs were administrated directly to cell bodies under recording through the fast exchange perfusion system.
The intracellular solution (ICS) contains (mM) 145 Cs-methanesulfonate, 8 NaCl, l MgCl2, 4.1 CaCl2, 10 EGTA, and 10 HEPES, 5 ATP, pH at 7.4, with 300-305 mOsm. The extracellular solution (ECS) contains (mM) 140 NaCl, 5 KCl, 2 CaCl2, 20 HEPES, and 10 glucose, pH at 7.4 and with 315-320 mOsm.
Voltage stimuli lasting 250 ms were delivered at 5-s intervals with voltage ramps ranging from −100 to +100 mV. The current values at −80 mV and +80 mV on I-V curve represent the measures of inward and outward current respectively.
Table X and FIGS. 7-51 show screening data for several additional compounds that are variants of M5, M6 or M21. The synthesis of compounds of Table X and FIGS. 7-51 is shown in Appendices A-C. The compounds shown in FIGS. 7-51 can be related to the appropriate row of Table X by the compound number shown in the figures and in the first column of Table X. The compounds in Table X other than M5, M6 and M21 themselves, are believed to be novel. The Table provides a number identifying the compound, its structurer, molecular weight and its cluster (i.e., whether the compound resembles M5, M6 or M21). The three columns relations to PI uptake describe the results of screening the compounds in the type of assay from Example 1. […] The last two columns show an effect on proliferation of Weri retinoblastoma or HeLa cervical cancer cells. Inhibition of proliferation is a measure of anti-neoplastic activity. […] If no data is shown, no test was performed.

cancer cell lines = test: Cell proliferation studies, cancer cell lines in general; type: cell-based; conditions: summary statement
Procedure: Cells were grown to 70% confluency, trypsinized, counted, and seeded in 96-well flat-bottom plates at a final concentration of 2.5×10^3-5.0×10^3 cells/well in growth media containing 5% FBS (Day 0). Other well sizes and cell densities were used successfully as well. Cells were allowed to incubate in growth media for 24 hours to allow for maximum adhesion. Treatment with the test agent began on Day 1 and continued for 72 hours either with or without retreatment. At the 72 hour time point, viable cell numbers are quantified by the CellTiter-Glo® cell viability assay as described above, or using standard MTT, SRB or BrDU assays. Experiments were repeated at least twice with the same concentrations to determine growth inhibitory activity. […] In an alternative format, this assay was used to screen potential TRPM7 inhibitory compounds at a fixed concentration, usually 5 or 10 uM. Alternatively, lower or higher concentrations were used. […] Thus, for the compounds in Table 1, all are potential anti-cancer agents. Some, like 399 and 509, are more general and may be effective against a wide range of cancers. Others, like 2785, are more specific and may be effective against a subset of cancers.
Data Collection—For the cell proliferation studies, data from each experiment was collected and expressed as % Cell Growth using the following calculation: % Cell Growth=(ftest/fvehicle)×100 Where ftest is the luminescent signal of the tested sample, and fvehicle is the luminescence of the vehicle in which the drug is dissolved (or appropriate measure for the other viability/proliferation measures). Dose response graphs and IC50 values were generated using standard software using the following variable slope equation: […]

[1] = tested on: rat brains subjected to concussive brain trauma; test: Fluid percussion injury (FPI) model, TTC staining of brain sections; type: in vivo; conditions: applied prior to the injury or 1 hour after; 2-6 atm injury; FIG. 1
Procedure: Inhibitors of TRPM7 were tested for their ability to provide neuroprotection to rat brains subjected to concussive brain trauma using a rodent model of fluid percussion injury (FPI). FPI was performed as described in the literature using 350-370 g male Sprague Dawley rats (Charles River, St. Constant, Quebec, Canada). In brief, 24 h before injury, the animal was anesthetized using 2% halothane and 2:1 nitrous oxide:oxygen. A 4.8 mm craniotomy was made with its center between the bregma and lambda and between the sagittal suture and right temporal ridge. A modified Leur-loc fitting was attached over the craniotomy and cemented in place using Acron MC/R dental acrylic (GC America, Alsip, Ill.). The Leur-loc was filled with saline, and a small piece of gelfoam was inserted. The incision was sutured, and the animal was returned to its cage overnight if not used same day. The following day, the incision was reopened, cleaned, and the gelfoam was removed. […] Injury severity was recorded using an oscilloscope attached to a transducer, and by sectioning the brains and staining with 2,3,5-Triphenyltetrazolium chloride staining (TTC). […]
Likewise, TRPM7 inhibitors are also expected to provide neuroprotection to other types of brain injuries. […] TRPM7 inhibitors such as M21 were applied 1 hour after stretch injury and cells were assessed for survival by PI fluorescence 24 hours after the injury. […]

T1 sequence (Q923J1 whole entry): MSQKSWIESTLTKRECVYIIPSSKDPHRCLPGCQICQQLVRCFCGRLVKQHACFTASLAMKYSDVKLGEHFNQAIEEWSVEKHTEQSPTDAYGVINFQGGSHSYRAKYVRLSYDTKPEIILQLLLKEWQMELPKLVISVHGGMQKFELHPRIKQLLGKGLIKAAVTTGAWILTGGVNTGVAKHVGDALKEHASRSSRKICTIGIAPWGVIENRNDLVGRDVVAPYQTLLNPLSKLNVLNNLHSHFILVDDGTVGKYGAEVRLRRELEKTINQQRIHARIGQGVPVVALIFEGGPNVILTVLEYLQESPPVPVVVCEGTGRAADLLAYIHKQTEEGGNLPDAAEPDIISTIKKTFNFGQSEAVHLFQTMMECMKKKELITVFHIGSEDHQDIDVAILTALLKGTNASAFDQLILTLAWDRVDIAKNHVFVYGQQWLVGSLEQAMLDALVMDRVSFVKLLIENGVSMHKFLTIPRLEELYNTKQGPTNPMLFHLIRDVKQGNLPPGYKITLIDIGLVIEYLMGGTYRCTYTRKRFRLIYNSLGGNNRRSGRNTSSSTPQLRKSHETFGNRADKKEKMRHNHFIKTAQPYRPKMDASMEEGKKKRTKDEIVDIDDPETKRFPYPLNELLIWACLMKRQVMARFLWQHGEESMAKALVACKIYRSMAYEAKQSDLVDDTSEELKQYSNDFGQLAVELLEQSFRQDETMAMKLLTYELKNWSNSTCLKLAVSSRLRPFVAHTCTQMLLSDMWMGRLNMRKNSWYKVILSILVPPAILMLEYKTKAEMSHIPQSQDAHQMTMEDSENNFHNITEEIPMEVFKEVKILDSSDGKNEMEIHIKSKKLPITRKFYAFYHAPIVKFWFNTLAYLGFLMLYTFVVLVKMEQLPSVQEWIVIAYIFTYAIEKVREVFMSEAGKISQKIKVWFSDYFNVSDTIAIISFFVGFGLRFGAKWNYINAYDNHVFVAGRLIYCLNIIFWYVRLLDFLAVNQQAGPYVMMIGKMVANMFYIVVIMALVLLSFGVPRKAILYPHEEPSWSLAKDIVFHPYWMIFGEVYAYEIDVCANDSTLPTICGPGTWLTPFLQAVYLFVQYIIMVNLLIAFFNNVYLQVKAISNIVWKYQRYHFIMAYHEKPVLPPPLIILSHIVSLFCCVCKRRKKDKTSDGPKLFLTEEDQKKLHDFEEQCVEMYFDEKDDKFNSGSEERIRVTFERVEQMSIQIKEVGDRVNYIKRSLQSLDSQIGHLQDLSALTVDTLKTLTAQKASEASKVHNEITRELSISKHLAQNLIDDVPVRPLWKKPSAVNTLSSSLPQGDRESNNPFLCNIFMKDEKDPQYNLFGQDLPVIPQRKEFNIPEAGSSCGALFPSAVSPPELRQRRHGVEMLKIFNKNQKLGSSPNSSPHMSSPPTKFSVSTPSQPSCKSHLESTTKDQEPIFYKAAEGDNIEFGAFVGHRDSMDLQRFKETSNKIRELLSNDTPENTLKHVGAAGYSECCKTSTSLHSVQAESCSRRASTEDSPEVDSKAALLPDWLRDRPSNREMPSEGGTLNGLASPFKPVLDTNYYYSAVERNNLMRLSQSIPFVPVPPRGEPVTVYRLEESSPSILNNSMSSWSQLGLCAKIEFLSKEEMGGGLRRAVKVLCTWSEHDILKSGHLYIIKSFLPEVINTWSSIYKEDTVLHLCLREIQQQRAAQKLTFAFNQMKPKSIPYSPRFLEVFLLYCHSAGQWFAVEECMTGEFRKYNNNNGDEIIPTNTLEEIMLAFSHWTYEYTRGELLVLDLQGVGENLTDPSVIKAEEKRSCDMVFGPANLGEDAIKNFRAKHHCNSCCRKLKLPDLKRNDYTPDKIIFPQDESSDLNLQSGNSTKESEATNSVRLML

Cc1c(Cc2ccc(Cl)c(Cl)c2)c(=O)oc2cc(O)ccc12 [Compound M21]
TRPM7 current (TRPM7 ion channel): 5 μM (Those that provide >10% inhibition of TRPM7 channel activity in the HEK293 cell system were labeled with the concentration tested (generally 5 uM)) | inhibition of proliferation of cancer cell lines (cancer cell lines): effective in inhibiting proliferation of a retinoblastoma cell line | protection of rat brains from fluid percussion-induced neuronal damage [1]: able to protect the brain from injuries sustained from concussive trauma; also recorded: significant protection
